{
  "source": "paper PMC8909834",
  "about": "“An Orally Bioavailable and Highly Efficacious Inhibitor of CDK9/FLT3 for the Treatment of Acute Myeloid Leukemia” (Cancers, 2022)",
  "key": {"[1]": {"test": "Maximum tolerated dose in non-tumor bearing mice", "assay_type": "in vivo", "protocol": "In vivo efficacy of CDDD11-8 against AML xenografts in mice. The maximum tolerated dose (MTD) of CDDD11-8 was determined in non-tumor bearing female BALB/c nude (nu/nu) mice (n = 3). […] Our proposed maximum dose of CDDD11-8 was 150 mg/kg once daily for seven days. […] All the animals received 28 doses of vehicle or CDDD11-8 at 75 or 125 mg/kg strength. […] The tumor regression was maintained over the dosing period. On day 29, the tumors in the 75 mg/kg treated group had recommenced growth to variable degrees (Supplementary Table S3). […] On day 29, one and three mice from the 75 and 125 mg/kg CDDD11-8 treated groups, respectively, had unmeasurable tumor size (zero tumor volume)."}, "RET": {"target": "T1, RET (Homo sapiens, UniProt P07949)", "T1 construct": "purchased Reaction Biology Corporation (Kinase HotSpot)", "test": "Kinase Hotspot radiolabel assay", "assay_type": "biochemical", "conditions": "read-out: % Residual Activity", "protocol": "(§1) Kinase assay. The ADP Glo^TM kinase assay (Promega, Madison, WI, USA) was used to assess the inhibition by CDDD11-8 of CDKs 1, 2, 4, 6, 7, and 9, as well as the mutant isoforms of FLT3. The assays were performed in accord with the manufacturer’s protocol (Promega) as described previously. Briefly, serial three-fold dilutions of CDDD11-8 were prepared in 100% DMSO from a 2 mM stock solution, followed by 1:40 dilution into Milli-Q water. Subsequently, 1 µL of each sample was incubated with 4 µL of kinase mixture containing a particular CDK enzyme and its substrate, standard kinase buffer [3 mM MgCl2, 50 mM HEPES-NaOH pH 7.5, 3 mM MnCl2, 3 µM Na-orthovanadate, 1 mM dithiothreitol (DTT)], kinase dilution buffer (containing 0.25 mg/mL PEG20,000, 50 mM HEPES-NaOH pH 7.5, 1 mM DTT), and ATP at 37 °C for 30 to 40 min. The final reaction mixture contained 0.5% DMSO in all samples, and the applied kinase concentrations were 1, 1, 10, 40, 20, and 50 nM for CDK1, 2, 4, 6, 7, and 9, respectively. The reaction was stopped by adding ADP-Glo reagent and the mixture was incubated further in the dark at room temperature for 40 min. As a final step, kinase detection reagent was added to each mixture and incubated at room temperature for 30 to 60 min. Luminescence was read using an EnVision® multilabel plate reader (PerkinElmer, Beaconsfield, UK), and half-maximum inhibitory concentrations (IC50) were calculated using a non-linear regression model with a variable slope, plotting log (inhibitor concentration) vs. response using the following formula: Ar%=Bottom+Top−Bottom/1+Inhibitor Concentration/IC50^HillSlope where the relative activity Ar (%) is the signal relative to the controls, IC50 is the half maximum concentration, Hillslope is the steepness of the dose-response curve, Top and Bottom are plateaus reflecting the maximum and minimum in responses on the Y-axis (GraphPad Prism version 7, San Diego, CA, USA). Ki values were calculated from the IC50 using the Cheng−Prusoff equation [32]. Extensive specificity assessment was carried out by Reaction Biology Corporation (Malvern, PA, USA) with 369 kinases using 1 µM CDDD11-8 concentration in a Kinase Hotspot radiolabel assay (for experimental details, please see (Reaction Biology https://www.reactionbiology.com/). Subsequently, Ki values were determined for kinases with greater than 90% inhibition."}, "PKN2/PRK2": {"target": "T2, PKN2/PRK2 (Homo sapiens, UniProt Q16513)", "T2 construct": "purchased Reaction Biology Corporation (Kinase HotSpot)", "test": "Kinase Hotspot radiolabel assay", "assay_type": "biochemical", "conditions": "read-out: % Residual Activity", "protocol": "as §1"}, "TGFBR2": {"target": "T3, TGFBR2 (Homo sapiens, UniProt P37173)", "T3 construct": "purchased Reaction Biology Corporation (Kinase HotSpot)", "test": "Kinase Hotspot radiolabel assay", "assay_type": "biochemical", "conditions": "read-out: % Residual Activity", "protocol": "as §1"}, "STK22D/TSSK1": {"target": "T4, STK22D/TSSK1 (Homo sapiens, UniProt Q9BXA7)", "T4 construct": "purchased Reaction Biology Corporation (Kinase HotSpot)", "T4 sequence (Q9BXA7 whole entry)": "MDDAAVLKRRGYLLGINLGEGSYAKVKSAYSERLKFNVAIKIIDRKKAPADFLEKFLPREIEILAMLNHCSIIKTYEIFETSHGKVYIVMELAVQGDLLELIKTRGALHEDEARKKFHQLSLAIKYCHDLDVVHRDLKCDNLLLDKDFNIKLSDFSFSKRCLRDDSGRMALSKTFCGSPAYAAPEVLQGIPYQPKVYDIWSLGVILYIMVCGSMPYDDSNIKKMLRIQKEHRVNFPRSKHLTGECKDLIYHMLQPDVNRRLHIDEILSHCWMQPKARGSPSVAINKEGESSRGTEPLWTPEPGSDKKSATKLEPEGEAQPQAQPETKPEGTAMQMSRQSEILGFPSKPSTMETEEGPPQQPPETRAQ", "test": "Kinase Hotspot radiolabel assay", "assay_type": "biochemical", "conditions": "read-out: % Residual Activity", "protocol": "as §1"}, "TRKB": {"target": "T5, TRKB (Homo sapiens, UniProt Q16620)", "T5 construct": "purchased Reaction Biology Corporation (Kinase HotSpot)", "T5 sequence (Q16620 32-822)": "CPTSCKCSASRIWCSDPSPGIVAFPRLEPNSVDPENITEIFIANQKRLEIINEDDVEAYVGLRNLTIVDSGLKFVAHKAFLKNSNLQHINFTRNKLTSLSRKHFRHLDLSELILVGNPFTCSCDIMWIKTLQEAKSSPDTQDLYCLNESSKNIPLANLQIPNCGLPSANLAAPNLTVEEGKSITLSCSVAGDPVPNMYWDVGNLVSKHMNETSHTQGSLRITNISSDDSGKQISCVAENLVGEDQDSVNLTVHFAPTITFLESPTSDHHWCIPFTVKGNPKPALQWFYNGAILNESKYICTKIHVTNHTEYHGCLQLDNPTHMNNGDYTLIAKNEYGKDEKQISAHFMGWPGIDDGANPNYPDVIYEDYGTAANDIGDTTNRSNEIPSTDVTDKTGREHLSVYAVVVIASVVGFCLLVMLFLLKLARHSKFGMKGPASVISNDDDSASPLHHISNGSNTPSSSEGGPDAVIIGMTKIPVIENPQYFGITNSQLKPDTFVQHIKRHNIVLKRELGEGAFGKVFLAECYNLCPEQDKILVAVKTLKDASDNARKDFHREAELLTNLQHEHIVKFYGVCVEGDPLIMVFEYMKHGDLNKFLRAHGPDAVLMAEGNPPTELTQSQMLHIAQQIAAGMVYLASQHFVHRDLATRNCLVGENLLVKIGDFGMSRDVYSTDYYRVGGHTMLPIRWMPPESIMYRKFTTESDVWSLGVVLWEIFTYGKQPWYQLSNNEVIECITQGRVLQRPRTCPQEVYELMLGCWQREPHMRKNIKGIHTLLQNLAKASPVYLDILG", "test": "Kinase Hotspot radiolabel assay", "assay_type": "biochemical", "conditions": "read-out: % Residual Activity", "protocol": "as §1"}, "TLK1": {"target": "T6, TLK1 (Homo sapiens, UniProt Q9UKI8)", "T6 construct": "purchased Reaction Biology Corporation (Kinase HotSpot)", "T6 sequence (Q9UKI8 whole entry)": "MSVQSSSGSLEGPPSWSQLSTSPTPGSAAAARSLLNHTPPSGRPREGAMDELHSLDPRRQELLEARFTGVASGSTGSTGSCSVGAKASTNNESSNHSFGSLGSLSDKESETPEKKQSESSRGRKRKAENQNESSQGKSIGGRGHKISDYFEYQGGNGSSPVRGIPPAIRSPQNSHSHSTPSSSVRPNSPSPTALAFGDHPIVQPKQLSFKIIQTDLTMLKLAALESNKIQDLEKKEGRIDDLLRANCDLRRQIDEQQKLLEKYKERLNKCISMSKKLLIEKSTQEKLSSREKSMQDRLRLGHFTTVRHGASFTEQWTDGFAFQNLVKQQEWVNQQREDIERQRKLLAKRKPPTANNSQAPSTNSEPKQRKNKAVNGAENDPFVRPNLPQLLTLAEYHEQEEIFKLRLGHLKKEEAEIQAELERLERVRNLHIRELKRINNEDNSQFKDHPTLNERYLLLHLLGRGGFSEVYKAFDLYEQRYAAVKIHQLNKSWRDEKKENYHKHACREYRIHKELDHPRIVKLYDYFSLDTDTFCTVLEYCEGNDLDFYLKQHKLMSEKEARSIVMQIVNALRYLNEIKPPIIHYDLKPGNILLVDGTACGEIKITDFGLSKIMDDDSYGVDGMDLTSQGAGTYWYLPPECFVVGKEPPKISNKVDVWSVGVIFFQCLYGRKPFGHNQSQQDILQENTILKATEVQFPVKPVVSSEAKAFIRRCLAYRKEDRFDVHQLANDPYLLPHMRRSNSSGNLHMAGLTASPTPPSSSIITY", "test": "Kinase Hotspot radiolabel assay", "assay_type": "biochemical", "conditions": "read-out: % Residual Activity", "protocol": "as §1"}, "ASK1/MAP3K5": {"target": "T7, ASK1/MAP3K5 (Homo sapiens, UniProt Q99683)", "T7 construct": "purchased Reaction Biology Corporation (Kinase HotSpot)", "test": "Kinase Hotspot radiolabel assay", "assay_type": "biochemical", "conditions": "read-out: % Residual Activity", "protocol": "as §1"}, "TXK": {"target": "T8, TXK (Homo sapiens, UniProt P42681)", "T8 construct": "purchased Reaction Biology Corporation (Kinase HotSpot)", "test": "Kinase Hotspot radiolabel assay", "assay_type": "biochemical", "conditions": "read-out: % Residual Activity", "protocol": "as §1"}, "KDR/VEGFR2": {"target": "T9, KDR/VEGFR2 (Homo sapiens, UniProt P35968)", "T9 construct": "purchased Reaction Biology Corporation (Kinase HotSpot)", "test": "Kinase Hotspot radiolabel assay", "assay_type": "biochemical", "conditions": "read-out: % Residual Activity", "protocol": "as §1"}, "EGFR": {"target": "T10, EGFR (Homo sapiens, UniProt P00533)", "T10 construct": "purchased Reaction Biology Corporation (Kinase HotSpot)", "test": "Kinase Hotspot radiolabel assay", "assay_type": "biochemical", "conditions": "read-out: % Residual Activity", "protocol": "as §1"}, "BMX/ETK": {"target": "T11, BMX/ETK (Homo sapiens, UniProt P51813)", "T11 construct": "purchased Reaction Biology Corporation (Kinase HotSpot)", "test": "Kinase Hotspot radiolabel assay", "assay_type": "biochemical", "conditions": "read-out: % Residual Activity", "protocol": "as §1"}, "GRK1": {"target": "T12, GRK1 (Homo sapiens, UniProt Q15835)", "T12 construct": "purchased Reaction Biology Corporation (Kinase HotSpot)", "T12 sequence (Q15835 whole entry)": "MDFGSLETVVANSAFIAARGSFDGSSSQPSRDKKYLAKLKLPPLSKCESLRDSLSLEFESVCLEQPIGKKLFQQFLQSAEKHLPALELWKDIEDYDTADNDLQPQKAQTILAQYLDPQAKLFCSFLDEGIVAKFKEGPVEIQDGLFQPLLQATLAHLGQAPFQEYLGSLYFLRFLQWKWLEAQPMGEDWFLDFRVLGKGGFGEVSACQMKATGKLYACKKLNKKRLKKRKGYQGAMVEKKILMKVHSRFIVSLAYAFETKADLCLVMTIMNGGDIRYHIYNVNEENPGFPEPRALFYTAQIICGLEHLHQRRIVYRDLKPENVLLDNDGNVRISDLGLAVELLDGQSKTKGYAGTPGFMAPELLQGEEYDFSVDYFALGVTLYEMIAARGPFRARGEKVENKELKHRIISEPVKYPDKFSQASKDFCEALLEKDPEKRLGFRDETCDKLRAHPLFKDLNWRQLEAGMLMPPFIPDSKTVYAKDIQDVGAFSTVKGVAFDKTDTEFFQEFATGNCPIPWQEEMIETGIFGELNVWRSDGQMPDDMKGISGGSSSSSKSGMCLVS", "test": "Kinase Hotspot radiolabel assay", "assay_type": "biochemical", "conditions": "read-out: % Residual Activity", "protocol": "as §1"}, "IRR/INSRR": {"target": "T13, IRR/INSRR (Homo sapiens, UniProt P14616)", "T13 construct": "purchased Reaction Biology Corporation (Kinase HotSpot)", "test": "Kinase Hotspot radiolabel assay", "assay_type": "biochemical", "conditions": "read-out: % Residual Activity", "protocol": "as §1"}, "PKD2/PRKD2": {"target": "T14, PKD2/PRKD2 (Homo sapiens, UniProt Q9BZL6)", "T14 construct": "purchased Reaction Biology Corporation (Kinase HotSpot)", "T14 sequence (Q9BZL6 whole entry)": "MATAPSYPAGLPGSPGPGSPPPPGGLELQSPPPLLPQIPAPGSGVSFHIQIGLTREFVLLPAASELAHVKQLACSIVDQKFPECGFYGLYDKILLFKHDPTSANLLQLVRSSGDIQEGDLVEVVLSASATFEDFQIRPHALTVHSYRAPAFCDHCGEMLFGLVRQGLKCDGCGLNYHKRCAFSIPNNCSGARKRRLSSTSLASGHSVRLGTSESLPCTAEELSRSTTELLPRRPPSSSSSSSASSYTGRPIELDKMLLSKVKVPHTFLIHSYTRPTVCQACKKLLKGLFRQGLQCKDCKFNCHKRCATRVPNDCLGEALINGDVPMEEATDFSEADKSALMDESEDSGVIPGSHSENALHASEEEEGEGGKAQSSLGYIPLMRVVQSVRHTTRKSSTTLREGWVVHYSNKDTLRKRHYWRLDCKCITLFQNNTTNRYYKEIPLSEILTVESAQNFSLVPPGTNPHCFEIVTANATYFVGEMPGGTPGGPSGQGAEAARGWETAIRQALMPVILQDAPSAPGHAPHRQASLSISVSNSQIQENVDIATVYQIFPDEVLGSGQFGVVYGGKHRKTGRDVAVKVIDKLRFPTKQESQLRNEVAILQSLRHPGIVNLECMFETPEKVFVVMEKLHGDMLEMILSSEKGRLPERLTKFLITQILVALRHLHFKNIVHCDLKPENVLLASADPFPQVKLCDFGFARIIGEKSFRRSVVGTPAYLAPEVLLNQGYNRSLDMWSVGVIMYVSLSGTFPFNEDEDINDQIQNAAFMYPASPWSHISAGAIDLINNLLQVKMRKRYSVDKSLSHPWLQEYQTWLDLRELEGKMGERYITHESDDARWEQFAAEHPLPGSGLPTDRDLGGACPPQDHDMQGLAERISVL", "test": "Kinase Hotspot radiolabel assay", "assay_type": "biochemical", "conditions": "read-out: % Residual Activity", "protocol": "as §1"}, "ERK7/MAPK15": {"target": "T15, ERK7/MAPK15 (Homo sapiens, UniProt Q8TD08)", "T15 construct": "purchased Reaction Biology Corporation (Kinase HotSpot)", "T15 sequence (Q8TD08 whole entry)": "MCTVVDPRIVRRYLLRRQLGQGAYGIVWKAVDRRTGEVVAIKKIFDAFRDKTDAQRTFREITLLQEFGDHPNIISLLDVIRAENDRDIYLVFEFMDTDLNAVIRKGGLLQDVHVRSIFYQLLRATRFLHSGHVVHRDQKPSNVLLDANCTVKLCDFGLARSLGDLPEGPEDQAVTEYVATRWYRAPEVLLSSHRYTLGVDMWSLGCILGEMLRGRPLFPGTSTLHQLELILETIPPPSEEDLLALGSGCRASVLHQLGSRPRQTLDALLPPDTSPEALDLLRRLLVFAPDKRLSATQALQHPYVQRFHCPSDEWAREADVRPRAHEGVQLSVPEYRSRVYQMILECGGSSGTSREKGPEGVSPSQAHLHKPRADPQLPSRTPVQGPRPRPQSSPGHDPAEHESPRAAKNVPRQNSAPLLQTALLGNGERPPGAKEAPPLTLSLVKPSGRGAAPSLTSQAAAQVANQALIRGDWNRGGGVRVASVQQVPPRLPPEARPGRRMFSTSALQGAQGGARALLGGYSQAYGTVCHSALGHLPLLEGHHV", "test": "Kinase Hotspot radiolabel assay", "assay_type": "biochemical", "conditions": "read-out: % Residual Activity", "protocol": "as §1"}, "CDK19/cyclin C": {"target": "T16, CDK19/cyclin C (Homo sapiens, UniProt Q9BWU1)", "T16 construct": "purchased Reaction Biology Corporation (Kinase HotSpot)", "T16 sequence (Q9BWU1 whole entry)": "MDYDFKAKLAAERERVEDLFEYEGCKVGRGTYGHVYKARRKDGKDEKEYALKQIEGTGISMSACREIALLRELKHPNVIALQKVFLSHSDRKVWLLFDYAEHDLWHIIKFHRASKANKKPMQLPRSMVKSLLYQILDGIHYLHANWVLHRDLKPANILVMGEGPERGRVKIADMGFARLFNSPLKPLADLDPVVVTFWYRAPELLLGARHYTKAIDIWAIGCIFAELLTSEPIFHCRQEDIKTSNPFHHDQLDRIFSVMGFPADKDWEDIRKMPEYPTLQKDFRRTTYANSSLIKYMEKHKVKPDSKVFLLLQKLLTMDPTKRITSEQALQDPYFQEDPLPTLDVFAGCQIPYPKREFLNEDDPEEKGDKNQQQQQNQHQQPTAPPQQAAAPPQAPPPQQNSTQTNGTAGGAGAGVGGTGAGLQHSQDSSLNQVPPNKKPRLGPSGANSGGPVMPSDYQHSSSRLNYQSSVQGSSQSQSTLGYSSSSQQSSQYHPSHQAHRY", "T16 sequence (P24863 whole entry partner)": "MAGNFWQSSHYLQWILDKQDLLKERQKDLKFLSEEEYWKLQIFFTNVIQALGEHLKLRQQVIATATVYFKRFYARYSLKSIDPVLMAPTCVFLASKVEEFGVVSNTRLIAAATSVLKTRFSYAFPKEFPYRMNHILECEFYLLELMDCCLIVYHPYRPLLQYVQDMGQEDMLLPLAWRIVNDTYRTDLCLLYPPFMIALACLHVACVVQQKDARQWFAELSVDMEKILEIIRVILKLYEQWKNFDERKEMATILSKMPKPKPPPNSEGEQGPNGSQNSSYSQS", "test": "Kinase Hotspot radiolabel assay", "assay_type": "biochemical", "conditions": "read-out: % Residual Activity", "protocol": "as §1"}, "CDK5/p35": {"target": "T17, CDK5/p35 (Homo sapiens, UniProt Q00535)", "T17 construct": "purchased Reaction Biology Corporation (Kinase HotSpot)", "test": "Kinase Hotspot radiolabel assay", "assay_type": "biochemical", "conditions": "read-out: % Residual Activity", "protocol": "as §1"}, "ERK1": {"target": "T18, ERK1 (Homo sapiens, UniProt P27361)", "T18 construct": "purchased Reaction Biology Corporation (Kinase HotSpot)", "test": "Kinase Hotspot radiolabel assay", "assay_type": "biochemical", "conditions": "read-out: % Residual Activity", "protocol": "as §1"}, "PAK6": {"target": "T19, PAK6 (Homo sapiens, UniProt Q9NQU5)", "T19 construct": "purchased Reaction Biology Corporation (Kinase HotSpot)", "test": "Kinase Hotspot radiolabel assay", "assay_type": "biochemical", "conditions": "read-out: % Residual Activity", "protocol": "as §1"}, "CDK2/cyclin O": {"target": "T20, CDK2/cyclin O (Homo sapiens, UniProt P24941)", "T20 construct": "purchased Reaction Biology Corporation (Kinase HotSpot)", "test": "Kinase Hotspot radiolabel assay", "assay_type": "biochemical", "conditions": "read-out: % Residual Activity", "protocol": "as §1"}, "AKT3": {"target": "T21, AKT3 (Homo sapiens, UniProt Q9Y243)", "T21 construct": "purchased Reaction Biology Corporation (Kinase HotSpot)", "test": "Kinase Hotspot radiolabel assay", "assay_type": "biochemical", "conditions": "read-out: % Residual Activity", "protocol": "as §1"}, "ZAK/MLTK": {"target": "T22, ZAK/MLTK (Homo sapiens, UniProt Q9NYL2)", "T22 construct": "purchased Reaction Biology Corporation (Kinase HotSpot)", "test": "Kinase Hotspot radiolabel assay", "assay_type": "biochemical", "conditions": "read-out: % Residual Activity", "protocol": "as §1"}, "[2]": {"test": "Aqueous solubility by turbidimetric method", "assay_type": "physicochemical", "conditions": "aqueous medium (not further specified), kinetic from dmso stock"}},
  "data": [
    {"smiles": "Cc1cnc(N[C@H]2CC[C@H](N)CC2)nc1-c1cnc2ccc(-c3ccccc3)cn12", "note": "[CDDD11-8]", "values": [
      {"measurement": "MTD at 7 days", "setting": "[1]; female, BALB/c nude (nu/nu), mouse, in vivo, oral, once daily for seven days", "value": 150, "unit": "mg/kg"},
      {"measurement": "body weight loss", "setting": "[1]; oral 200 mg/kg, one mouse after five days, the rest after seven days", "value": "> 15", "unit": "%"},
      {"measurement": "clinical signs of toxicity / weight loss", "setting": "[1]; up to oral 150 mg/kg once daily for 7 days", "value": "no overt clinical signs of toxicity or significant weight loss"},
      {"measurement": "remaining activity at 1 µM", "setting": "RET", "value": 84.4, "unit": "%"},
      {"measurement": "remaining activity at 1 µM", "setting": "PKN2/PRK2", "value": 88.3, "unit": "%"},
      {"measurement": "remaining activity at 1 µM", "setting": "TGFBR2", "value": 95.6, "unit": "%"},
      {"measurement": "remaining activity at 1 µM", "setting": "STK22D/TSSK1", "value": 93.2, "unit": "%"},
      {"measurement": "remaining activity at 1 µM", "setting": "TRKB", "value": 10.8, "unit": "%"},
      {"measurement": "remaining activity at 1 µM", "setting": "TLK1", "value": 110, "unit": "%"},
      {"measurement": "remaining activity at 1 µM", "setting": "ASK1/MAP3K5", "value": 90.2, "unit": "%"},
      {"measurement": "remaining activity at 1 µM", "setting": "TXK", "value": 60.4, "unit": "%"},
      {"measurement": "remaining activity at 1 µM", "setting": "KDR/VEGFR2", "value": 86.9, "unit": "%"},
      {"measurement": "remaining activity at 1 µM", "setting": "EGFR", "value": 82.2, "unit": "%"},
      {"measurement": "remaining activity at 1 µM", "setting": "BMX/ETK", "value": 71.2, "unit": "%"},
      {"measurement": "remaining activity at 1 µM", "setting": "GRK1", "value": 65, "unit": "%"},
      {"measurement": "remaining activity at 1 µM", "setting": "IRR/INSRR", "value": 101, "unit": "%"},
      {"measurement": "remaining activity at 1 µM", "setting": "PKD2/PRKD2", "value": 62.7, "unit": "%"},
      {"measurement": "remaining activity at 1 µM", "setting": "ERK7/MAPK15", "value": 66.4, "unit": "%"},
      {"measurement": "remaining activity at 1 µM", "setting": "CDK19/cyclin C", "value": 38, "unit": "%"},
      {"measurement": "remaining activity at 1 µM", "setting": "CDK5/p35", "value": 84.5, "unit": "%"},
      {"measurement": "remaining activity at 1 µM", "setting": "ERK1", "value": 97.3, "unit": "%"},
      {"measurement": "remaining activity at 1 µM", "setting": "PAK6", "value": 96.6, "unit": "%"},
      {"measurement": "remaining activity at 1 µM", "setting": "CDK2/cyclin O", "value": 56.8, "unit": "%"},
      {"measurement": "remaining activity at 1 µM", "setting": "AKT3", "value": 77.2, "unit": "%"},
      {"measurement": "remaining activity at 1 µM", "setting": "ZAK/MLTK", "value": 83.3, "unit": "%"},
      {"measurement": "solubility", "setting": "[2]", "value": "> 100", "unit": "µM"}
    ]}
  ]
}
